{"source": "Sander's compilation of Henry's law constants (doi:10.1021/es020599y)", "data": [{"assay": "Henry solubility constant Hcp at 298.15 K (mol/(m3 Pa))", "details": "reference: Bamford et al. (2002)", "values": [{"smiles": "Clc1cccc(-c2c(Cl)cccc2Cl)c1Cl", "note": "[2,2',3,6'-tetrachlorobiphenyl]", "Henry solubility constant Hcp": 0.03}, {"smiles": "Clc1ccc(-c2cccc(Cl)c2Cl)cc1Cl", "note": "[2,3,3',4'-tetrachlorobiphenyl]", "Henry solubility constant Hcp": 0.038}, {"smiles": "Clc1cc(-c2c(Cl)c(Cl)cc(Cl)c2Cl)cc(Cl)c1Cl", "note": "[2,3,3',4',5,5',6-heptachlorobiphenyl]", "Henry solubility constant Hcp": 0.032}, {"smiles": "Clc1ccc(-c2c(Cl)c(Cl)cc(Cl)c2Cl)c(Cl)c1Cl", "note": "[2,2',3,3',4,5',6'-heptachlorobiphenyl]", "Henry solubility constant Hcp": 0.021}, {"smiles": "Clc1cccc(-c2cccc(Cl)c2Cl)c1Cl", "note": "[2,2',3,3'-tetrachlorobiphenyl]", "Henry solubility constant Hcp": 0.036}, {"smiles": "Clc1ccc(-c2cc(Cl)ccc2Cl)cc1", "note": "[2,4',5-trichlorobiphenyl]", "Henry solubility constant Hcp": 0.034}, {"smiles": "Clc1cc(Cl)c(Cl)c(-c2cc(Cl)c(Cl)cc2Cl)c1", "note": "[2,2',3,4',5,5'-hexachlorobiphenyl]", "Henry solubility constant Hcp": 0.017}, {"smiles": "Clc1cccc(-c2ccccc2Cl)c1", "note": "[2,3'-dichlorobiphenyl]", "Henry solubility constant Hcp": 0.043}, {"smiles": "Clc1ccccc1-c1ccccc1Cl", "note": "[2,2'-dichlorobiphenyl]", "Henry solubility constant Hcp": 0.046}, {"smiles": "Clc1cccc(-c2cc(Cl)ccc2Cl)c1", "note": "[2,3',5-trichlorobiphenyl]", "Henry solubility constant Hcp": 0.035}, {"smiles": "Clc1ccc(-c2c(Cl)cccc2Cl)c(Cl)c1Cl", "note": "[2,2',3,4,6'-pentachlorobiphenyl]", "Henry solubility constant Hcp": 0.022}, {"smiles": "Clc1ccc(-c2cc(Cl)ccc2Cl)c(Cl)c1", "note": "[2,2',4,5'-tetrachlorobiphenyl]", "Henry solubility constant Hcp": 0.027}, {"smiles": "Clc1ccc(Cl)c(-c2ccccc2)c1Cl", "note": "[2,3,6-trichlorobiphenyl]", "Henry solubility constant Hcp": 0.033}, {"smiles": "Clc1ccccc1-c1c(Cl)cccc1Cl", "note": "[2,2',6-trichlorobiphenyl]", "Henry solubility constant Hcp": 0.033}, {"smiles": "Clc1cc(Cl)c(-c2c(Cl)cc(Cl)c(Cl)c2Cl)cc1Cl", "note": "[2,2',3,4,4',5',6-heptachlorobiphenyl]", "Henry solubility constant Hcp": 0.017}, {"smiles": "Clc1ccc(-c2ccccc2)c(Cl)c1", "note": "[2,4-dichlorobiphenyl]", "Henry solubility constant Hcp": 0.037}, {"smiles": "Clc1ccccc1-c1cccc(Cl)c1Cl", "note": "[2,2',3-trichlorobiphenyl]", "Henry solubility constant Hcp": 0.042}, {"smiles": "Clc1cc(Cl)c(-c2cccc(Cl)c2Cl)cc1Cl", "note": "[2,2',3,4',5'-pentachlorobiphenyl]", "Henry solubility constant Hcp": 0.023}, {"smiles": "Clc1ccc(-c2ccccc2Cl)cc1Cl", "note": "[2,3',4'-trichlorobiphenyl]", "Henry solubility constant Hcp": 0.036}, {"smiles": "Clc1cc(Cl)c(-c2c(Cl)ccc(Cl)c2Cl)cc1Cl", "note": "[2,2',3,4',5',6-hexachlorobiphenyl]", "Henry solubility constant Hcp": 0.015}, {"smiles": "Clc1cc(Cl)c(-c2ccccc2Cl)cc1Cl", "note": "[2,2',4,5-tetrachlorobiphenyl]", "Henry solubility constant Hcp": 0.027}, {"smiles": "Clc1cc(Cl)c(-c2ccc(Cl)c(Cl)c2)c(Cl)c1", "note": "[2,3',4,4',6-pentachlorobiphenyl]", "Henry solubility constant Hcp": 0.015}, {"smiles": "Clc1cc(-c2c(Cl)ccc(Cl)c2Cl)c(Cl)c(Cl)c1Cl", "note": "[2,2',3,3',4,5,6'-heptachlorobiphenyl]", "Henry solubility constant Hcp": 0.022}, {"smiles": "Clc1ccc(Cl)c(-c2cc(Cl)c(Cl)c(Cl)c2Cl)c1", "note": "[2,2',3,4,5,5'-hexachlorobiphenyl]", "Henry solubility constant Hcp": 0.02}, {"smiles": "Clc1cc(-c2cc(Cl)c(Cl)c(Cl)c2)cc(Cl)c1Cl", "note": "[3,3',4,4',5,5'-hexachlorobiphenyl]", "Henry solubility constant Hcp": 0.047}, {"smiles": "Clc1ccc(-c2cccc(Cl)c2Cl)c(Cl)c1", "note": "[2,2',3,4'-tetrachlorobiphenyl]", "Henry solubility constant Hcp": 0.028}, {"smiles": "Clc1ccc(Cl)c(-c2c(Cl)ccc(Cl)c2Cl)c1Cl", "note": "[2,2',3,3',6,6'-hexachlorobiphenyl]", "Henry solubility constant Hcp": 0.009}, {"smiles": "Clc1ccc(-c2c(Cl)ccc(Cl)c2Cl)c(Cl)c1", "note": "[2,2',3,4',6-pentachlorobiphenyl]", "Henry solubility constant Hcp": 0.019}, {"smiles": "Clc1ccc(-c2ccc(Cl)c(Cl)c2Cl)c(Cl)c1", "note": "[2,2',3,4,4'-pentachlorobiphenyl]", "Henry solubility constant Hcp": 0.023}, {"smiles": "Clc1ccc(-c2cc(Cl)c(Cl)cc2Cl)c(Cl)c1", "note": "[2,2',4,4',5-pentachlorobiphenyl]", "Henry solubility constant Hcp": 0.021}, {"smiles": "Clc1ccc(-c2ccccc2Cl)c(Cl)c1", "note": "[2,2',4-trichlorobiphenyl]", "Henry solubility constant Hcp": 0.033}, {"smiles": "Clc1ccc(-c2cc(Cl)c(Cl)c(Cl)c2Cl)c(Cl)c1", "note": "[2,2',3,4,4',5-hexachlorobiphenyl]", "Henry solubility constant Hcp": 0.045}, {"smiles": "Clc1ccc(-c2cc(Cl)c(Cl)c(Cl)c2)cc1", "note": "[3,4,4',5-tetrachlorobiphenyl]", "Henry solubility constant Hcp": 0.041}, {"smiles": "Clc1cc(-c2ccc(Cl)c(Cl)c2Cl)cc(Cl)c1Cl", "note": "[2,3,3',4,4',5'-hexachlorobiphenyl]", "Henry solubility constant Hcp": 0.034}, {"smiles": "Clc1ccc(-c2cccc(Cl)c2)cc1", "note": "[3,4'-dichlorobiphenyl]", "Henry solubility constant Hcp": 0.049}, {"smiles": "Clc1cc(Cl)c(-c2cc(Cl)c(Cl)c(Cl)c2)cc1Cl", "note": "[2,3',4,4',5,5'-hexachlorobiphenyl]", "Henry solubility constant Hcp": 0.027}, {"smiles": "Clc1cc(Cl)c(-c2cc(Cl)c(Cl)c(Cl)c2Cl)c(Cl)c1", "note": "[2,2',3,4,4',5,6'-heptachlorobiphenyl]", "Henry solubility constant Hcp": 0.017}, {"smiles": "Clc1cc(Cl)c(Cl)c(-c2cccc(Cl)c2Cl)c1", "note": "[2,2',3,3',5-pentachlorobiphenyl]", "Henry solubility constant Hcp": 0.023}, {"smiles": "Clc1ccc(-c2c(Cl)ccc(Cl)c2Cl)cc1", "note": "[2,3,4',6-tetrachlorobiphenyl]", "Henry solubility constant Hcp": 0.025}, {"smiles": "Clc1ccc(Cl)c(-c2c(Cl)ccc(Cl)c2Cl)c1", "note": "[2,2',3,5',6-pentachlorobiphenyl]", "Henry solubility constant Hcp": 0.021}, {"smiles": "Clc1ccc(-c2cc(Cl)c(Cl)c(Cl)c2Cl)cc1Cl", "note": "[2,3,3',4,4',5-hexachlorobiphenyl]", "Henry solubility constant Hcp": 0.029}, {"smiles": "Clc1cccc(-c2ccccc2)c1Cl", "note": "[2,3-dichlorobiphenyl]", "Henry solubility constant Hcp": 0.043}, {"smiles": "Clc1cccc(-c2ccc(Cl)cc2Cl)c1", "note": "[2,3',4-trichlorobiphenyl]", "Henry solubility constant Hcp": 0.033}, {"smiles": "Clc1ccc(-c2c(Cl)ccc(Cl)c2Cl)cc1Cl", "note": "[2,3,3',4',6-pentachlorobiphenyl]", "Henry solubility constant Hcp": 0.023}, {"smiles": "Clc1cc(Cl)c(Cl)c(-c2ccc(Cl)c(Cl)c2)c1", "note": "[2,3,3',4',5-pentachlorobiphenyl]", "Henry solubility constant Hcp": 0.043}, {"smiles": "Clc1cc(Cl)c(Cl)c(-c2c(Cl)ccc(Cl)c2Cl)c1", "note": "[2,2',3,3',5,6'-hexachlorobiphenyl]", "Henry solubility constant Hcp": 0.015}, {"smiles": "Clc1ccc(-c2c(Cl)cc(Cl)c(Cl)c2Cl)cc1Cl", "note": "[2,3,3',4,4',6-hexachlorobiphenyl]", "Henry solubility constant Hcp": 0.021}, {"smiles": "Clc1ccc(-c2cc(Cl)cc(Cl)c2Cl)cc1", "note": "[2,3,4',5-tetrachlorobiphenyl]", "Henry solubility constant Hcp": 0.025}, {"smiles": "Clc1ccc(Cl)c(-c2ccc(Cl)c(Cl)c2)c1", "note": "[2,3',4',5-tetrachlorobiphenyl]", "Henry solubility constant Hcp": 0.033}, {"smiles": "Clc1cccc(-c2ccc(Cl)c(Cl)c2Cl)c1Cl", "note": "[2,2',3,3',4-pentachlorobiphenyl]", "Henry solubility constant Hcp": 0.027}, {"smiles": "Clc1cc(-c2cc(Cl)c(Cl)c(Cl)c2Cl)c(Cl)c(Cl)c1Cl", "note": "[2,2',3,3',4,4',5,5'-octachlorobiphenyl]", "Henry solubility constant Hcp": 0.1}]}]}
